From patent EP4813463A2, “TYK2 INHIBITORS AND COMPOSITIONS AND METHODS THEREOF” (Lynk Pharmaceuticals Co. Ltd., priority 2023, dated 2024)
Where two headings read alike, the source gives them in different places.

Tests used:
[1] = system: Ba/F3-FL-TYK2-P760L cells; assay: Anti-proliferative assay in engineered Ba/F3 cells (Cell-Titer Glo, 72 h); assay type: cell-based; conditions: Mus musculus, concentration that causes 50% growth inhibition, read-out: Baf3-FL-T2P760L
Procedure: Dimerization domain of Tel protein fused with JAK kinase domain was permanently transduced into Ba/F3 cells, whose proliferation is dependent on JAK activity in the absence of IL-3 induction. These engineered Ba/F3-FL-TYK2-P760L cells were used to monitor JAK inhibitory activities of the compounds in the cellular. Ba/F3 cells were cultured in RPMI-1640 (Corning) containing 10% fetal bovine serum. Cells were seeded at 2000/well of white flat bottom 96-well plates. The well containing medium only was used as background control. After 24h growth, cells were treated with compounds. The test compounds were dissolved in DMSO to a stock concentration of 20 mM. 3-fold serially diluted compounds for 9 concentrations with top concentration of 20 µM was added into the each well. The final DMSO concentration was 0.1%. The cells continued to grow at 37°C in 5% CO2 for 72 h after compound treatment. The viability was measured by cellular ATP determination using the Cell-Titer Glo luciferase reagent (Promega). The Luminescence value was recorded by a multi-label reader Envision (PerkinElmer). Inhibition Rate was calculated relative to vehicle (DMSO) treated control wells using following formula: % Inhibition = 100−(RLU_compound−RLU_blank)/(RLU_control−RLU_blank) × 100% [formula] wherein • RLU_compound = the relative light unit of cells treated with test compounds • RLU_blank = the relative light unit of medium with DMSO only • RLU_control = the relative light unit of cells treated with DMSO only
Table 4. Ba/F3-FL-TYK2-P760L Cells IC50 Values of Exemplary Compounds

[2] = molecular target: T1, TYK2-JH2 domain (Homo sapiens, UniProt P29597); assay: Binding activity test for JH2 domain of TYK2 (Tb-antibody/tracer FRET)
T1 construct: JAK1-JH2 domain or TYK2-JH2 domain enzyme in assay buffer
Procedure: Binding Activity test for JH2 domain of JAK1 and TYK2 […] Add 8μL/well in echo source plate, echo will add 75nL/well with 3-fold serial dilution for 11 points in assay plate. 75nL DMSO for high control and low control. […] For low control, add 5μL/well assay buffer. And then spin down at 1000rpm and centrifuge for 30 seconds. After enzyme system prepared, add 5μL of Tb-antibody solution into each well of assay plate. Spin down at 1000 rpm and centrifuge for 30sec. After Tb-antibody added, also add 5μL of tracer into the assay plate. Spin down at 1000rpm and centrifuge for 30sec. Incubate for […] at 25°C firstly and then continue to incubate the plate at 4°C overnight. Read by envision in FRET mode. The Luminescence value was recorded by a multi-label reader Envision (PerkinElmer). […] Table 2. IC50 on JH2 domain activity (nM)

[3] = BaF3, 72 h, 72 h compound treatment
[4] = JH2 domain enzyme; 60 min at 25°C, then 4°C overnight; read-out: TYK2 JH2 Binding IC50

T1 sequence (P29597 589-875 limits assumed): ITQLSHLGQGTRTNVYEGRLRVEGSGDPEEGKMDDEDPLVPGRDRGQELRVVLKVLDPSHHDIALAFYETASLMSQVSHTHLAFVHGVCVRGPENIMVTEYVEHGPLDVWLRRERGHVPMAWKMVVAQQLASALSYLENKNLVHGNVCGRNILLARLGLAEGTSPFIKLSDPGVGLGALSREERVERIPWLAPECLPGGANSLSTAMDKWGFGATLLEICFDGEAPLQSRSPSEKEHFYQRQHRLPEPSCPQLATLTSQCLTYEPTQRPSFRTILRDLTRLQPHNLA

## [2H]C([2H])([2H])Oc1c([C@@H](OC)C(F)(F)F)ccc2c1c(Nc1cc(NC(=O)C3CC3)ncc1C(=O)OC)nn2C [Example 120B, Methyl (R)-6-(cyclopropanecarboxamido)-4-((4-(methoxy-d3)-1-methyl-5-(2,2,2-trifluoro-1-methoxyethyl)-1H-indazol-3-yl)amino)nicotinate]
[1]; [3]
  IC50: 107 nM
[2]; [4]
  IC50: 0.442 nM

## COC(=O)c1cnc(NC(=O)[C@@H]2C[C@@H]2F)cc1Nc1nn(C)c2ccc(C(O)C(F)(F)F)c(OC)c12 (stereo partly drawn) [Example 122, Methyl 6-((1S,2S)-2-fluorocyclopropane-1-carboxamido)-4-((4-methoxy-1-methyl-5-(2,2,2-trifluoro-1-hydroxyethyl)-1H-indazol-3-yl)amino) nicotinate]
[1]; [3]
  IC50: 1.16 nM
[2]; [4]
  IC50: 0.178 nM

## [2H]C([2H])([2H])CC(=O)c1cnc(NC(=O)C2CC2)cc1Nc1nn(C)c2ccc(C#N)c(OC)c12 [Example 127, N-(4-((5-cyano-4-methoxy-1-methyl-1H-indazol-3-yl)amino)-5-(propanoyl-3,3,3-d3)pyridin-2-yl)cyclopropanecarboxamide]
[1]; [3]
  IC50: 52.3 nM
[2]; [4]
  IC50: 0.256 nM

## COC(=O)c1cnc(NC(=O)C2CC2)cc1Nc1nn(C)c2ccc(C(O)C3(F)CC3)c(OC)c12 (centres unmarked) [Example 128, Methyl 6-(cyclopropanecarboxamido)-4-((5-((1-fluorocyclopropyl)(hydroxy)methyl)-4-methoxy-1-methyl-1H-indazol-3-yl)amino)nicotinate]
[1]; [3]
  IC50: 17.3 nM
[2]; [4]
  IC50: 0.26 nM

## CCC(F)(F)c1cnc(NC(=O)C2CC2)cc1Nc1nn(C)c2ccc(C(O)C(F)(F)F)c(OC)c12 (centres unmarked) [Example 129, N-(5-(1,1-difluoropropyl)-4-((4-methoxy-1-methyl-5-(2,2,2-trifluoro-1-hydroxyethyl)-1H-indazol-3-yl)amino)pyridin-2-yl)cyclopropanecarboxamide]
[1]; [3]
  IC50: 1.41 nM
[2]; [4]
  IC50: 0.466 nM

## C/C=C(\F)c1cnc(NC(=O)C2CC2)cc1Nc1nn(C)c2ccc(C(O)C(F)(F)F)c(OC)c12 (centres unmarked) [Example 130, (Z)-N-(5-(1-fluoroprop-1-en-1-yl)-4-((4-methoxy-1-methyl-5-(2,2,2-trifluoro-1-hydroxyethyl)-1H-indazol-3-yl)amino)pyridin-2-yl)cyclopropanecarboxamide]
[1]; [3]
  IC50: 157 nM
[2]; [4]
  IC50: 0.688 nM

## [2H]C([2H])([2H])CC(=O)c1cnc(NC(=O)C2CC2)cc1Nc1nn(C)c2ccc(COC)c(OC)c12 [Example 132, N-(4-((4-methoxy-5-(methoxymethyl)-1-methyl-1H-indazol-3-yl)amino)-5-(propanoyl-3,3,3-d3)pyridin-2-yl)cyclopropanecarboxamide]
[1]; [3]
  IC50: 25.9 nM
[2]; [4]
  IC50: 0.174 nM

## COCc1ccc2c(c(Nc3cc(NC(=O)C4CC4)ncc3C(=O)OC)nn2C)c1OC [Example 133, Methyl 6-(cyclopropanecarboxamido)-4-((4-methoxy-5-(methoxymethyl)-1-methyl-1H-indazol-3-yl)amino)nicotinate]
[1]; [3]
  IC50: 53.3 nM
[2]; [4]
  IC50: 0.288 nM

## [2H]C([2H])([2H])NC(=O)c1nnc(NC(=O)C2CC2)cc1Nc1nn(C)c2ccc([C@H](OC([2H])([2H])[2H])C(F)(F)F)c(OC)c12 [Example 135, (S)-6-(cyclopropanecarboxamido)-4-((4-methoxy-1-methyl-5-(2,2,2-trifluoro-1-(methoxy-d3)ethyl)-1H-indazol-3-yl)amino)-N-(methyl-d3)pyridazine-3-carboxamide]
[1]; [3]
  IC50: 0.327 nM
[2]; [4]
  IC50: 0.07 nM

## COC(=O)c1cnc(NC(=O)C2CC2)cc1Nc1nn(C)c2ccc(Cl)c(OC)c12 [Example 137, Methyl 4-((5-chloro-4-methoxy-1-methyl-1H-indazol-3-yl)amino)-6-(cyclopropanecarboxamido)nicotinate]
[1]; [3]
  IC50: 99.8 nM
[2]; [4]
  IC50: 0.377 nM

## COC(=O)c1cnc(Nc2ccc(F)cn2)cc1Nc1nn(C)c2ccc(C(OC)C(F)(F)F)c(OC)c12 (centres unmarked) [Example 142, Methyl 6-((5-fluoropyridin-2-yl)amino)-4-((4-methoxy-1-methyl-5-(2,2,2-trifluoro-1-methoxyethyl)-1H-indazol-3-yl)amino)nicotinate]
[1]; [3]
  IC50: 12 nM
[2]; [4]
  IC50: 0.185 nM

## COC(=O)c1cnc(NC(=O)C2CC2)cc1Nc1nn(C)c2ccc(CC#N)c(OC)c12 [Example 145, Methyl 4-((5-(cyanomethyl)-4-methoxy-1-methyl-1H-indazol-3-yl)amino)-6-(cyclopropanecarboxamido)nicotinate]
[1]; [3]
  IC50: 15.2 nM
[2]; [4]
  IC50: 0.151 nM

## [2H]C([2H])([2H])CC(=O)c1cnc(NC(=O)C2CC2)cc1Nc1nn(C)c2ccc(Cl)c(OC)c12 [Example 147, N-(4-((5-chloro-4-methoxy-1-methyl-1H-indazol-3-yl)amino)-5-(propanoyl-3,3,3-d3)pyridin-2-yl)cyclopropanecarboxamide]
[1]; [3]
  IC50: 23.8 nM
[2]; [4]
  IC50: 0.146 nM

## COC(=O)c1cnc(NC(=O)C2CC2)cc1Nc1nn(C)c2ccc(CC(F)(F)F)c(OC)c12 [Example 148, Methyl 6-(cyclopropanecarboxamido)-4-((4-methoxy-1-methyl-5-(2,2,2-trifluoroethyl)-1H-indazol-3-yl)amino)nicotinate]
[1]; [3]
  IC50: 7.08 nM
[2]; [4]
  IC50: 0.091 nM

## [2H]C([2H])([2H])CC(=O)c1cnc(NC(=O)C2CC2)cc1Nc1nn(C)c2ccc(C(OC)C3(F)CC3)c(OC)c12 (centres unmarked) [Example 150, N-(4-((5-((1-fluorocyclopropyl)(methoxy)methyl)-4-methoxy-1-methyl-1H-indazol-3-yl)amino)-5-(propanoyl-3,3,3-d3)pyridin-2-yl)cyclopropanecarboxamide]
[1]; [3]
  IC50: 32.7 nM
[2]; [4]
  IC50: 0.154 nM

## [2H]C([2H])([2H])O[C@@H](c1ccc2c(c(Nc3cc(NC(=O)C4CC4)ncc3C(=O)NC)nn2C)c1OC)C(F)(F)F [Example 151, (5)-6-(cyclopropanecarboxamido)-4-((4-methoxy-1-methyl-5-(2,2,2-trifluoro-1-(methoxy-d3)ethyl)-1H-indazol-3-yl)amino)-N-methylnicotinamide]
[1]; BaF3, 72 h compound treatment
  IC50: 0.213 nM
[2]; read-out: TYK2 JH2 Binding IC50; JH2 domain enzyme; 60 min at 25°C, then 4°C overnight
  IC50: 0.053 nM

## [2H]C([2H])([2H])NC(=O)c1cnc(NC(=O)C2CC2)cc1Nc1nn(C)c2ccc([C@H](OC)C(F)(F)F)c(OC([2H])([2H])[2H])c12 [Example 152, (S)-6-(cyclopropanecarboxamido)-4-((4-(methoxy-d3)-1-methyl-5-(2,2,2-trifluoro-1-methoxyethyl)-1H-indazol-3-yl)amino)-N-(methyl-d3)nicotinamide]
[1]; [3]
  IC50: 0.284 nM
[2]; [4]
  IC50: 0.071 nM

## [2H]C([2H])([2H])NC(=O)c1cnc(NC(=O)C2CC2)cc1Nc1nn(C([2H])([2H])[2H])c2ccc([C@H](OC)C(F)(F)F)c(OC)c12 [Example 153, (S)-6-(cyclopropanecarboxamido)-4-((4-methoxy-1-(methyl-d3)-5-(2,2,2-trifluoro-1-methoxyethyl)-1H-indazol-3-yl)amino)-N-(methyl-d3)nicotinamide]
[1]; [3]
  IC50: 0.235 nM
[2]; [4]
  IC50: 0.055 nM

## CCC(=O)c1cnc(NC(=O)C2CC2)nc1Nc1cccc(-c2cnn(C)n2)c1OC [Example 158, N-(4-((2-methoxy-3-(2-methyl-2H-1,2,3-triazol-4-yl)phenyl)amino)-5-propionylpyrimidin-2-yl)cyclopropanecarboxamide]
[1]; [3]
  IC50: 68.4 nM
[2]; [4]
  IC50: 0.496 nM

## COC(=O)c1cnc(NC(=O)C2CC2)cc1Nc1nn(C)c2ccc(C3COCCO3)c(OC)c12 (centres unmarked) [Example 160, Methyl 4-((5-(1,4-dioxan-2-yl)-4-methoxy-1-methyl-1H-indazol-3-yl)amino)-6-(cyclopropanecarboxamido)nicotinate]
[1]; [3]
  IC50: 119 nM
[2]; [4]
  IC50: 0.709 nM

## COC(=O)c1cnc(NC(=O)C2CC2)cc1Nc1nn(C)c2ccc(C3(C(F)(F)F)CC3)c(OC)c12 [Example 161, Methyl 6-(cyclopropanecarboxamido)-4-((4-methoxy-1-methyl-5-(1-(trifluoromethyl)cyclopropyl)-1H-indazol-3-yl)amino)nicotinate]
[1]; [3]
  IC50: 74 nM
[2]; [4]
  IC50: 0.568 nM

## COC(=O)c1cnc(NC(=O)C2CC2)cc1Nc1nn(C)c2ccc(C3(C#N)CC3)c(OC)c12 [Example 162, Methyl 4-((5-(1-cyanocyclopropyl)-4-methoxy-1-methyl-1H-indazol-3-yl)amino)-6-(cyclopropanecarboxamido)nicotinate]
[1]; [3]
  IC50: 26.6 nM
[2]; [4]
  IC50: 0.261 nM
